Data: patent publication US7202261B2, “Calcilytic compounds” (NPS Pharmaceuticals, Inc., priority 1996, dated 2007)
Counter-ions that a name gives are not always drawn. Like-named read-outs stand apart in the source and are kept apart here.

Molecular target: T1, human calcium receptor (Homo sapiens, UniProt P41180)
T1 construct: expressed in transfected cells
T1 sequence (P41180 20-1078): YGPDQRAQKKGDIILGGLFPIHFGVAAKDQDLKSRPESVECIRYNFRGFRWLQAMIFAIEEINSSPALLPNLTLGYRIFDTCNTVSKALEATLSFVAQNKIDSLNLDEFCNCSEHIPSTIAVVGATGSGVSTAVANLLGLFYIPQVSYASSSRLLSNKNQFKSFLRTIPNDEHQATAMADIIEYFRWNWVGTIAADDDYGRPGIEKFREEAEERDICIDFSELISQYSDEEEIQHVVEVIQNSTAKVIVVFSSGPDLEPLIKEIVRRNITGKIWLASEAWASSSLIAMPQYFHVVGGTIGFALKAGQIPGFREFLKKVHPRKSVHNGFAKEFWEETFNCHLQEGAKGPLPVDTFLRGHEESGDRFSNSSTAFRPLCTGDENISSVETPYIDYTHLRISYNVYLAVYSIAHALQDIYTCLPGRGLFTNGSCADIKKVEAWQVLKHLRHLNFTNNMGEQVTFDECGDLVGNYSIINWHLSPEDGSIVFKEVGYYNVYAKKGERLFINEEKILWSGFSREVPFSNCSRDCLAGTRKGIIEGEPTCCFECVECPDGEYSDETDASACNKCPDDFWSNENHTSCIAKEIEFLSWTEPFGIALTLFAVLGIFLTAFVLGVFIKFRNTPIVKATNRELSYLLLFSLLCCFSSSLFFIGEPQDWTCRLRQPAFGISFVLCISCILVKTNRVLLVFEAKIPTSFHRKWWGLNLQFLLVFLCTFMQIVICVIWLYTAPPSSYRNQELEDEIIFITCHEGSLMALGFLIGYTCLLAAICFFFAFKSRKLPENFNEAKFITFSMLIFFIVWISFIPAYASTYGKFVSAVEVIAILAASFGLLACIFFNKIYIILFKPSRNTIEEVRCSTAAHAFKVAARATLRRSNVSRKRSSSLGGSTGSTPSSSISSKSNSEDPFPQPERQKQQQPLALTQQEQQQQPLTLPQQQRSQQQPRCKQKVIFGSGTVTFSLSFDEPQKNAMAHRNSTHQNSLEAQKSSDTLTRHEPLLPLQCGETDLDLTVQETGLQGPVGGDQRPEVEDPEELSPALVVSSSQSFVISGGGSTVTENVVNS
Assay: Calcium Receptor Inhibitor Assay
Format: cell-based
How it was run: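 Intracellular Ca^2+ measured with fluo-3 at 37° C in stirred cell suspension. Buffer held 1 mM CaCl2 and 1 mg/mL D-glucose. Compound or vehicle added 90 seconds before extracellular Ca^2+ was raised from 1 to 2 mM, and calcilytic activity scored as concentration-dependent block of the intracellular Ca^2+ rise.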

[1] = HEK 293 4.0–7 cells stably expressing the human calcium receptor, fluo-3, read-out: IC50 for blocking increases of intracellular Ca2+ elicited by extracellular Ca2+

Compound	IC50 [1]	IC50
COc1ccc(CC(C)(C)NC[C@@H](O)COc2cccc(Cl)c2Cl)cc1 [Compound 115, (R)—N-[2-Hydroxy-3-(2,3-dichlorophenoxy)propyl]-1,1-dimethyl-2-(4-methoxyphenyl)ethylamine Hydrochloride]	< 1000 nM	
COc1ccc(CC(C)(C)NC[C@H](O)COc2cccc(Cl)c2Cl)cc1 [Compound 116, (S)—N-[2-Hydroxy-3-(2,3-dichlorophenoxy)propyl]-1,1-dimethyl-2-(4-methoxyphenyl)ethyl amine Hydrochloride]	< 1000 nM	
COc1ccc(CC(C)(C)NCC(O)COc2ccccc2)cc1C (centres unmarked) [Compound 117, N-(2-Hydroxy-3-phenoxypropyl)-1,1-dimethyl-2-(4-methoxy-3-methylphenyl)ethylamine Hydrochloride]	< 1000 nM	
COc1ccc(CC(C)(C)NCC(O)COc2cccc(OC)c2C#N)cc1 (centres unmarked) [Compound 118, N-[2-Hydroxy-3-(2-cyano-3-methoxyphenoxy)propyl]-1,1-dimethyl-2-(4-methoxyphenyl)ethylamine Hydrochloride]	< 1000 nM	
COc1ccc(CC(C)(C)NCC(O)COc2cccc(Cl)c2C#N)cc1 (centres unmarked) [Compound 119, N-[2-Hydroxy-3-(3-chloro-2-cyanophenoxy)propyl]-1,1-dimethyl-2-(4-methoxyphenyl)ethylamine Hydrochloride]	< 1000 nM	
CC(C)(Cc1ccc2ccccc2c1)NCC(O)COc1ccccc1 (centres unmarked) [Compound 120, N-(2-Hydroxy-3-phenoxypropyl)-1,1-dimethyl-2-(2-naphthyl)ethylamine Hydrochloride]	< 1000 nM	
Cc1ccc(CC(C)(C)NCC(O)COc2ccccc2)cc1C (centres unmarked) [Compound 121, N-(2-Hydroxy-3-phenoxy)propyl)-1,1-dimethyl-2-(3,4-dimethylphenyl)ethylamine Hydrochloride]	< 1000 nM	
COc1ccc(CC(C)(C)NC[C@@H](O)COc2ccccc2C#N)cc1 [Compound 122, (R)—N-[2-Hydroxy-3-(2-cyanophenoxy)propyl]-1,1-dimethyl-2-(4-methoxyphenyl)ethylamine Hydrochloride]	< 1000 nM	
COc1ccc(CC(C)(C)NCC(O)CCCCCCCCO)cc1 (centres unmarked) [Compound 123, N-(2,10-Dihydroxydecyl)-1,1-dimethyl-2-(4-methoxyphenyl)ethylamine Hydrochloride]		< 10000 nM
COc1ccc(CC(C)(C)NCC(O)Cc2ccc3c(c2)OCO3)cc1 (centres unmarked) [Compound 124, N-[2-hydroxy-3-(3,4-methylene-dioxyphenyl)propyl]-1,1-dimethyl-2-(4-methoxyphenyl)ethylamine Hydrochloride]		< 10000 nM
COc1ccc(CC(C)(C)NCC(O)COCCCCCCc2ccccc2)cc1 (centres unmarked) [Compound 126, N-[2-hydroxy-3-(6-phenyl-hexanoxy)propyl]-1,1-dimethyl-2-(4-methoxyphenyl)ethylamine]	< 1000 nM	
COc1ccc(CC(C)(C)NCC(O)COCCCCc2ccccc2)cc1 (centres unmarked) [Compound 127, N-[2-hydroxy-3-(4-phenyl-butanoxy)propyl]-1,1-dimethyl-2-(4-methoxyphenyl)ethylamine]	< 1000 nM	
COc1ccc(CC(C)(C)NCC(O)COc2ccccc2)cc1F (centres unmarked) [Compound 128, N-(2-hydroxy-3-phenoxypropyl)-1,1-dimethyl-2-(3-fluoro-4-methoxyphenyl) ethylamine]	< 10000 nM	
COc1ccc(CC(C)(C)NCC(O)COc2ccccc2)c(F)c1 (centres unmarked) [Compound 129, N-(2-hydroxy-3-phenoxypropyl)-1,1-dimethyl-2-(2-fluoro-4-methoxyphenyl)ethylamine Hydrochloride]	< 1000 nM	
COc1ccc(CC(C)(C)NCC(O)COc2cccc3c(OC)cccc23)cc1 (centres unmarked) [Compound 130, N-[2-hydroxy-3-(5-methoxy-1-napthoxy)propyl]-1,1-dimethyl-2-(4-methoxyphenyl)ethylamine Hydrochloride]	< 1000 nM	
COc1ccc(CC(C)(C)NCC(O)COC2CCCCC2C#N)cc1 (centres unmarked) [Compound 131, N-[2-hydroxy-3-(2-cyano-cyclohexyloxy)propyl-1,1-dimethyl-2-(4-methoxyphenyl)ethylamine Hydrochloride]		< 1000 nM

Compound	IC50 [1]	IC50
COc1ccc(CC(C)(C)NCC(O)COc2ccc(OC)c(OC)c2)cc1 (centres unmarked) [Compound 132, N-[2-hydroxy-3-(3,4-dimethoxyphenoxy)propyl]-1,1-dimethyl-2-(4-methoxyphenyl)ethylamine Hydrochloride]	< 10000 nM	
COc1ccc(CC(C)(C)NCC(O)COc2cc(OC)cc(OC)c2)cc1 (centres unmarked) [Compound 133, N-[2-hydroxy-3-(3,5-dimethoxyphenoxy)propyl]-1,1-dimethyl-2-(4-methoxyphenyl)ethylamine Hydrochloride]	< 1000 nM	
COC(=O)c1ccccc1OCC(O)CNC(C)(C)Cc1ccc(OC)cc1 (centres unmarked) [Compound 134, N-[2-hydroxy-3-(2-carbomethoxyphenoxy)propyl]-1,1-dimethyl-2-(4-methoxyphenyl)ethylamine Hydrochloride]	< 1000 nM	
COc1ccc(CC(C)(C)NCC(O)COc2ccc(C)cc2)cc1 (centres unmarked) [Compound 135, N-[2-hydroxy-3-(4-methylphenoxy)propyl]-1,1-dimethyl-2-(4-methoxyphenyl)ethylamine Hydrochloride]	< 1000 nM	
COc1ccc(CC(C)(C)NCC(O)COc2cccc(Cl)c2Cl)cc1 (centres unmarked) [Compound 136, N-[2-hydroxy-3-(2,3-dichlorophenoxy)propyl]-1,1-dimethyl-2-(4-methoxyphenyl)ethylamine Hydrochloride]	< 1000 nM	
COc1ccc(CC(C)(C)NCC(O)COc2cc(Cl)cc(Cl)c2)cc1 (centres unmarked) [Compound 137, N-[2-hydroxy-3-(3,5-dichlorophenoxy)propyl]-1,1-dimethyl-2-(4-methoxyphenyl)ethylamine Hydrochloride]	< 1000 nM	
COc1ccc(CC(C)(C)NCC(O)COc2ccc(Cl)cc2Cl)cc1 (centres unmarked) [Compound 138, N-[2-hydroxy-3-(2,4-dichlorophenoxy)propyl]-1,1-dimethyl-2-(4-methoxyphenyl)ethylamine Hydrochloride]	< 1000 nM	
COc1ccc(CC(C)(C)NCC(O)COc2ccc(Cl)c(Cl)c2)cc1 (centres unmarked) [Compound 139, N-[2-hydroxy-3-(3,4-dichlorophenoxy)propyl]-1,1-dimethyl-2-(4-methoxyphenyl)ethylamine Hydrochloride]	< 1000 nM	
COc1ccc(CC(C)(C)NCC(O)COc2cc(Cl)ccc2Cl)cc1 (centres unmarked) [Compound 140, N-[2-hydroxy-3-(2,5-dichlorophenoxy)propyl]-1,1-dimethyl-2-(4-methoxyphenyl)ethylamine Hydrochloride]	< 1000 nM	
CCc1ccc(OCC(O)CNC(C)(C)Cc2ccc(OC)cc2)cc1 (centres unmarked) [Compound 141, N-[2-hydroxy-3-(4-ethylphenoxy)propyl]-1,1-dimethyl-2-(4-methoxyphenyl)ethylamine Hydrochloride]	< 1000 nM	
COc1ccc(CC(C)(C)NCC(O)COc2ccccc2C#N)cc1 (centres unmarked) [Compound 142, N-[2-hydroxy-3-(2-cyanophenoxy)propyl]-1,1-dimethyl-2-(4-methoxyphenyl)ethylamine Hydrochloride]	< 1000 nM	
COc1ccc(CC(C)(C)NCC(O)COc2cccc([N+](=O)[O-])c2)cc1 (centres unmarked) [Compound 143, N-[2-hydroxy-3-(3-nitrophenoxy)propyl]-1,1-dimethyl-2-(4-methoxyphenyl)ethylamine Hydrochloride]	< 1000 nM	
CCOc1ccc(OCC(O)CNC(C)(C)Cc2ccc(OC)cc2)cc1 (centres unmarked) [Compound 144, N-[2-hydroxy-3-(4-ethoxyphenoxy)propyl]-1,1-dimethyl-2-(4-methoxyphenyl)ethylamine Hydrochloride]	< 10000 nM	
COc1ccc(CC(C)(C)NCC(O)COc2ccc(C(C)C)cc2)cc1 (centres unmarked) [Compound 145, N-[2-hydroxy-3-(4-iso-propylphenoxy)propyl]-1,1-dimethyl-2-(4-methoxyphenyl)ethylamine Hydrochloride]	< 1000 nM	
COc1ccc(CC(C)(C)NCC(O)COc2cccc(C(C)C)c2)cc1 (centres unmarked) [Compound 146, N-[2-hydroxy-3-(3-iso-propylphenoxy)propyl]-1,1-dimethyl-2-(4-methoxyphenyl)ethylamine Hydrochloride]	< 1000 nM	
CCOc1cccc(OCC(O)CNC(C)(C)Cc2ccc(OC)cc2)c1 (centres unmarked) [Compound 147, N-[2-hydroxy-3-(3-ethoxyphenoxy)propyl]-1,1-dimethyl-2-(4-methoxyphenyl)ethylamine Hydrochloride]	< 10000 nM	
